Data published in patent US8946446B2, “Pyrrolo sulfonamide compounds for modulation of orphan nuclear receptor RAR-related orphan receptor-γ (ROR-γ, NR1F3) activity and for the treatment of chronic inflammatory and autoimmune diseases” (Phenex Pharmaceuticals AG, priority 2011, dated 2015).

Molecular target: T1, RORγ ligand binding domain (LBD) (Homo sapiens, UniProt P51449)
T1 construct: made in house; host or cells: E. coli BL-21 (BL3), vector pDEST15
T1 sequence (P51449 269-508 limits assumed): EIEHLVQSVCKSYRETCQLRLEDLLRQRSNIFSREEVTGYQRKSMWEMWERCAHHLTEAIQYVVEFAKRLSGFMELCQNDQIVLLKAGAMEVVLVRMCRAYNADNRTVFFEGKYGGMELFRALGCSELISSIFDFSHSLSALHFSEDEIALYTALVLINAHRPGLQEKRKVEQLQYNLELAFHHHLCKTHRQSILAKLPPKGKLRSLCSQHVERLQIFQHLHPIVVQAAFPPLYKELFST
Assay: TR-FRET Activity Assay (ligand sensing, RORγ-LBD / coactivator peptide interaction)
Type: biochemical
Conditions: not given
Text: This method measures the ability of putative ligands to modulate the interaction between the purified bacterial expressed RORγ ligand binding domain (LBD) and synthetic N-terminally biotinylated peptides which are derived from nuclear receptor coactivator proteins such as but not limited to SRC1 (NcoA1), SRC2 (NcoA2, TIF2), SRC3 (NcoA3), PGC1α, PGC1β, CBP, GRIP1, TRAP220, RIP140.
The ligand-binding domain (LBD) of RORγ was expressed as fusion protein with GST in […] cells using the vector pDEST15. Cells were lysed by lysozyme-treatment and sonication, and the fusion proteins purified over glutathione sepharose (Pharmacia) according to the manufacturers instructions. For screening of compounds for their influence on the RORγ-peptide interaction, the LANCE technology (Perkin Elmer) was applied. This method relies on the binding dependent energy transfer from a donor to an acceptor fluorophor attached to the binding partner of interest. For ease of handling and reduction of background from compound fluorescence LANCE technology makes use of generic fluorophore labels and time resolved detection assays were done in a final volume of 25 μL in a 384 well plate, in a Tris-based buffer system (20 mM Tris-HCl pH6.8; 60 mM KCl, 1 mM DTT; 5 mM MgCl2; 35 ng/μL BSA), containing 20-60 ng/well recombinantly expressed RORγ-LBD fused to GST, 200-600 nM N-terminally biotinylated peptide, 200 ng/well Streptavidin-xIAPC conjugate (Prozyme) and 6-10 ng/well Eu W1024-antiGST (Perkin Elmer). DMSO content of the samples was kept at 1%.
After generation of the Tris-based buffer system, the potentially RORγ modulating ligands were diluted. […] The LANCE signal was detected by a Perkin Elmer EnVision™ Multilabel Counter. The results were visualized by plotting the ratio between the emitted light at 665 nm and 615 nm. […] Ligands that promote the complex formation induce a concentration-dependent increase in time-resolved fluorescent signal.
The normalised TR-FRET assay values, using the following equation: 1000*665 nm measurement value/615 nm measurement value, were transferred to the program GraphPad Prism to generate graphs and dose response curves using the following equation:
Equation: Sigmoidal Dose-Response (Variable Slope) Y=Bottom+(Top-Bottom)/(1+10^((LogEC50−X)*HillSlope)) X is the logarithm of the concentration. Y is the response. Y starts at Bottom and goes to Top with a sigmoidal shape.
This is identical to the “four parameter logistic equation”. The IC50 values are calculated using this equation.

SMILES | IC50 [nM]
Cc1c(S(N)(=O)=O)cc(-c2cc(C(C)(C)C)cc(S(=O)(=O)N(C)C(C)(C)C)c2)n1CC1CCCCC1 [22/4] | 500 to 2000
CCNS(=O)(=O)c1cc(-c2cc(C(C)(C)C)cc(C(C)(C)C)c2)n(CC2CCCCC2)c1C [Example 2, 1-(Cyclohexylmethyl)-5-(3,5-di-tert-butylphenyl)-N-ethyl-2-methyl-1H-pyrrole-3-sulfonamide] | < 500
COCCNS(=O)(=O)c1cc(-c2cc(C(C)(C)C)cc(C(C)(C)C)c2)n(CC2CCCCC2)c1C [Example 2/1] | < 500
CC(=NO)c1cc(-c2cc(S(N)(=O)=O)c(C)n2CC2CCCCC2)cc(C(C)(C)C)c1 [Example 6, 5-(3-(tert-Butyl)-5-(1-(hydroxyimino)ethyl)phenyl)-1-(cyclohexylmethyl)-2-methyl-1H-pyrrole-3-sulfonamide] | 500 to 2000

Same assay, conditions: read-out: RORγ activity in the TR-FRET Activity Assay (IC50 FRET), Group

SMILES | IC50 [nM]
Cc1c(S(N)(=O)=O)cc(-c2ccc(S(=O)(=O)NC(C)(C)C)c(C(C)(C)C)c2)n1CC1CCCCC1 [22/1] | 500 to 2000
Cc1c(S(N)(=O)=O)cc(-c2ccc(S(=O)(=O)N(C)C(C)(C)C)c(C(C)(C)C)c2)n1CC1CCCCC1 [22/2] | < 500
Cc1c(S(N)(=O)=O)cc(-c2cc(C(C)(C)C)cc(S(=O)(=O)NC(C)(C)C)c2)n1CC1CCCCC1 [22/3] | > 2000
Cc1c(S(N)(=O)=O)cc(-c2ccc(S(=O)(=O)NC(C)(C)C)c(C(F)(F)F)c2)n1CC1CCCCC1 [22/5] | < 500
CCC(C)(C)NS(=O)(=O)c1ccc(-c2cc(S(N)(=O)=O)c(C)n2CC2CCCCC2)cc1C(F)(F)F [22/6] | < 500
Cc1c(S(N)(=O)=O)cc(-c2ccc(S(=O)(=O)N3CCCCC3(C)C)c(C(F)(F)F)c2)n1CC1CCCCC1 [22/9] | 500 to 2000
Cc1c(S(N)(=O)=O)cc(-c2ccc(S(=O)(=O)NC(C)(C)C)c(C3(C)CC3)c2)n1CC1CCCCC1 [22/18] | < 500
Cc1c(S(N)(=O)=O)cc(-c2cnc(OCC(C)(C)C)c(C(F)(F)F)c2)n1CC1CCCCC1 [34/4] | > 2000
Cc1c(S(N)(=O)=O)cc(-c2cnc(NCC(C)(C)C)c(C(F)(F)F)c2)n1CC1CCCCC1 [34/5] | 500 to 2000
CCC(=O)NCC(C)(C)c1cc(-c2cc(S(N)(=O)=O)c(C)n2CC2CCCCC2)cc(C(C)(C)C)c1 [49/1] | > 2000
Cc1c(S(N)(=O)=O)cc(-c2cc(C(C)(C)C)cc(C(C)(C)CNC(=O)C3CC3)c2)n1CC1CCCCC1 [49/2] | > 2000
Cc1c(S(N)(=O)=O)cc(-c2cn(S(=O)(=O)c3cccc(Cl)c3)c3ccccc23)n1CC1CCCCC1 [53/1] | > 2000
Cc1c(S(N)(=O)=O)cc(C2=CC(S(=O)(=O)c3ccc(Cl)cc3)c3ccccc32)n1CC1CCCCC1 (stereo not shown) [53/2] | 500 to 2000
Cc1c(S(N)(=O)=O)cc(-c2cc(C(C)(C)C)cc(C(C)(C)C)c2)n1CC1CCCCC1 [Example 1, 1-(Cyclohexylmethyl)-5-(3,5-di-tert-butylphenyl)-2-methyl-1H-pyrrole-3-sulfonamide] | < 500
Cc1c(S(=O)(=O)NC2CC2)cc(-c2cc(C(C)(C)C)cc(C(C)(C)C)c2)n1CC1CCCCC1 [Example 3, 1-(Cyclohexylmethyl)-N-cyclopropyl-5-(3,5-di-tert-butylphenyl)-2-methyl-1H-pyrrole-3-sulfonamide] | < 500
Cc1c(S(=O)(=O)NCCCCCO)cc(-c2cc(C(C)(C)C)cc(C(C)(C)C)c2)n1CC1CCCCC1 [Example 5] | < 500
Cc1c(S(N)(=O)=O)cc(-c2cc3c(c(C(C)(C)C)c2)OCCC3=NO)n1CC1CCCCC1 [Example 6/1, 5-(8-(tert-Butyl)-4-(hydroxyimino)chroman-6-yl)-1-(cyclohexylmethyl)-2-methyl-1H-pyrrole-3-sulfonamide] | > 2000

SMILES | IC50 [nM]
Cc1c(S(N)(=O)=O)cc(-c2cc(C(C)(C)C)cc(C(C)(F)F)c2)n1CC1CCCCC1 [Example 7, 5-(3-(tert-Butyl)-5-(1,1-difluoroethyl)phenyl)-1-(cyclohexylmethyl)-2-methyl-1H-pyrrole-3-sulfonamide] | < 500
Cc1c(S(N)(=O)=O)cc(-c2cc(C(C)(C)C)c(C(=O)O)c(C(C)(C)C)c2)n1CC1CCCCC1 [Example 8, 2,6-Di-tert-butyl-4-(1-(cyclohexylmethyl)-5-methyl-4-sulfamoyl-1H-pyrrol-2-yl)benzoic acid] | > 2000
Cc1c(S(N)(=O)=O)cc(-c2cc(C(C)(C)C)c(C#N)c(C(C)(C)C)c2)n1CC1CCCCC1 [Example 9, 1-(Cyclohexylmethyl)-5-(3,5-di-tert-butyl-4-cyanophenyl)-2-methyl-1H-pyrrole-3-sulfonamide] | < 500
Cc1c(S(=O)(=O)NCC(C)(C)C(=O)O)cc(-c2ccc(S(=O)(=O)NC(C)(C)C)c(C(C)(C)C)c2)n1CC1CCCCC1 [Example 11, 3-(5-(3-(tert-Butyl)-4-(N-(tert-butyl)sulfamoyl)phenyl)-1-(cyclohexylmethyl)-2-methyl-1H-pyrrole-3-sulfonamido)-2,2-dimethylpropanoic acid] | > 2000
Cc1c(S(N)(=O)=O)cc(-c2cc(C(=O)NCC(C)C)cc(C(C)(C)C)c2)n1CC1CCCCC1 [Example 13, 3-(tert-Butyl)-5-(1-(cyclohexylmethyl)-5-methyl-4-sulfamoyl-1H-pyrrol-2-yl)-N-isobutylbenzamide] | 500 to 2000
Cc1c(S(N)(=O)=O)cc(-c2cc(O)cc(C(C)(C)C)c2)n1CC1CCCCC1 [Example 14, 5-(3-(tert-Butyl)-5-hydroxyphenyl)-1-(cyclohexylmethyl)-2-methyl-1H-pyrrole-3-sulfonamide] | > 2000
Cc1c(S(N)(=O)=O)cc(-c2cc(OCCCC(=O)O)cc(C(C)(C)C)c2)n1CC1CCCCC1 [Example 16, 4-(3-(tert-Butyl)-5-(1-(cyclohexylmethyl)-5-methyl-4-sulfamoyl-1H-pyrrol-2-yl)phenoxy)butanoic acid] | > 2000
Cc1c(S(N)(=O)=O)cc(-c2cc(OCC(C)C)nc(C(C)(C)C)c2)n1CC1CCCCC1 [Example 17, 5-(2-tert-Butyl-6-isobutoxypyridin-4-yl)-1-(cyclohexylmethyl)-2-methyl-1H-pyrrole-3-sulfonamide] | < 500
Cc1c(S(N)(=O)=O)cc(-c2cc(C(C)(C)C)nc(C(C)(C)C)c2)n1CC1CCCCC1 [Example 18, 1-(Cyclohexylmethyl)-5-(2,6-di-tert-butylpyridin-4-yl)-2-methyl-1H-pyrrole-3-sulfonamide] | < 500
Cc1c(S(N)(=O)=O)cc(-c2cc(C(=O)NC(C)(C)C)nc(C(C)(C)C)c2)n1CC1CCCCC1 [Example 20, N,6-Di-tert-butyl-4-(1-(cyclohexylmethyl)-5-methyl-4-sulfamoyl-1H-pyrrol-2-yl)picolinamide] | 500 to 2000
Cn1c(S(N)(=O)=O)cc(-c2cc(C(C)(C)C)cc(C(C)(C)C)c2)c1CC1CCCCC1 [Example 25, 5-(Cyclohexylmethyl)-4-(3,5-di-tert-butylphenyl)-1-methyl-1H-pyrrole-2-sulfonamide] | > 2000
CC(C)(C)c1cc(-c2cc(S(N)(=O)=O)cn2CC2CCCCC2)cc(C(C)(C)C)c1 [Example 28, 1-(Cyclohexylmethyl)-5-(3,5-di-tert-butylphenyl)-1H-pyrrole-3-sulfonamide] | < 500
CC(C)(C)c1cc(-c2cc(S(N)(=O)=O)c(Cl)n2CC2CCCCC2)cc(C(C)(C)C)c1 [Example 29, 2-Chloro-1-(cyclohexylmethyl)-5-(3,5-di-tert-butylphenyl)-1H-pyrrole-3-sulfonamide] | < 500
CC(C)(C)c1cc(-c2c(Cl)c(S(N)(=O)=O)c(Cl)n2CC2CCCCC2)cc(C(C)(C)C)c1 [Example 30, 2,4-Dichloro-1-(cyclohexylmethyl)-5-(3,5-di-tert-butylphenyl)-1H-pyrrole-3-sulfonamide] | 500 to 2000
CC(C)(C)c1cc(-c2cc(S(N)(=O)=O)c(Br)n2CC2CCCCC2)cc(C(C)(C)C)c1 [Example 31, 2-Bromo-1-(cyclohexylmethyl)-5-(3,5-di-tert-butylphenyl)-1H-pyrrole-3-sulfonamide] | < 500
CC(C)(C)c1cc(-c2c(Br)c(S(N)(=O)=O)c(Br)n2CC2CCCCC2)cc(C(C)(C)C)c1 [Example 32, 2,4-Dibromo-1-(cyclohexylmethyl)-5-(3,5-di-tert-butylphenyl)-1H-pyrrole-3-sulfonamide] | 500 to 2000
